Experimental findings from ChEMBL document CHEMBL3301361, “Experimental in vitro DMPK and physicochemical data on a set of publicly disclosed compounds” are described below.

Data set [1] is described as follows: physchem. The settings on record: octan-1-ol/water, pH 7.4, LogD7.4.
Data set [2] can be described thus: physchem. Particulars: pH 7.4 buffer.

The structures appear in SMILES notation. Values after ≈ are worked out from the molar mass of the structure shown.

As for `Cc1cnc(Nc2ccc(OCC(O)CN(C)C)cc2)nc1Nc1ccccc1` (configuration not stated), the logD (in general, the decadic logarithm of the distribution of all forms, ionised or not, between an organic phase and buffer at a given pH) in the data set “physchem [1]” came to 2. For the same compound, the thermodynamic solubility (as a rule, solubility found after equilibrating the solid with the medium) in the data set “physchem [2]” was determined as 724 µM (≈ 285 µg/mL).

In “physchem [1]”, `CN(C)c1cccc2c(S(N)(=O)=O)cccc12` came in with a logD of 1.95. This compound showed a solubility (thermodynamic) in “physchem [2]” of 23.4 µM (≈ 5.86 µg/mL).

In turn, `Nc1ncc(-c2cnn(C3CCNCC3)c2)cc1-c1nc2ccccc2o1` gave a logD in “physchem [1]” of 1.85. In addition, the thermodynamic solubility in “physchem [2]” was 2.3 µM (≈ 0.829 µg/mL).

Take `COc1ccc(-c2cc3c(N[C@H]4CCCNC4)ncc(C(N)=O)c3s2)cc1`: the logD in “physchem [1]” came to 1.82. This compound also had a solubility (thermodynamic) in the data set “physchem [2]” of 1050 µM (≈ 401 µg/mL).

`CC(=O)c1noc(C)c1C(=O)Nc1nccs1` had a logD in the data set “physchem [1]” of 1.94. This compound also showed a solubility (thermodynamic) in “physchem [2]” of 46.8 µM (≈ 11.8 µg/mL).

Consider `O=S(=O)(Nc1ccc(S(=O)(=O)Nc2nccs2)cc1)c1ccc2c(c1)OCCO2`, for which the logD in “physchem [1]” was found to be 1.97. This compound also showed a thermodynamic solubility in “physchem [2]” of 0.7 µM (≈ 0.317 µg/mL).

On to `FC(F)(F)c1nnc2ccc(NCc3cccnc3)nn12`, for which, in “physchem [1]”, the logD is 2.06. In addition, the solubility (thermodynamic) in the data set “physchem [2]” was 380 µM (≈ 112 µg/mL).

As for `CC(C)(C)c1cc2nc3c(c(O)n2n1)CN(Cc1ccccc1)C3=O`, in “physchem [1]”, the pH-dependent lipophilicity (logD) was 1.9. In addition, in the data set “physchem [2]”, the solubility (thermodynamic) came to 25.1 µM (≈ 8.44 µg/mL).

Regarding `CCc1cccc2c(C#N)cn(CC(=O)NCCOC)c12`, in the data set “physchem [1]”, the logD worked out at 1.95. In addition, the thermodynamic solubility in the data set “physchem [2]” worked out at 37.2 µM (≈ 10.6 µg/mL).

In “physchem [1]”, `Nc1cc(-c2ccccc2)ncn1` returned a log distribution coefficient (logD) of 1.91. Besides, the thermodynamic solubility in “physchem [2]” turned out to be 372 µM (≈ 63.6 µg/mL).

In the data set “physchem [1]”, `O=C(Nc1nc2c(=O)[nH]cnc2s1)c1ccccc1` had a logD of 1.94. Further, the solubility (thermodynamic) in the data set “physchem [2]” was determined as 7.4 µM (≈ 2.01 µg/mL).

The compound `Cc1cc(S(=O)(=O)Nc2nc(Nc3ccc(Cl)cc3)n[nH]2)c(S)cc1Cl` yielded a logD in the data set “physchem [1]” of 2.09. Moreover, the solubility (thermodynamic) in the data set “physchem [2]” amounted to 87.1 µM (≈ 37.5 µg/mL).

`Cc1ccc(C(=O)Nc2ccon2)cc1-n1cnc2ccc(N3CCN(C)CC3)cc2c1=O`: in the data set “physchem [1]”, the logD was found to be 1.87. This compound displayed a solubility (thermodynamic) in the data set “physchem [2]” of 57.5 µM (≈ 25.6 µg/mL).

`Cc1cc(CNc2nccc(Nc3cc(C)[nH]n3)n2)on1`: the logD in “physchem [1]” worked out at 1.86. Moreover, the solubility (thermodynamic) in “physchem [2]” was found to be 813 µM (≈ 232 µg/mL).

Compound `CCN(CCO)CCCOc1cc2ncnc(Nc3cc(CC(=O)Nc4cccc(F)c4F)[nH]n3)c2cc1OC` came in with a logD in “physchem [1]” of 1.94. Besides, the thermodynamic solubility in “physchem [2]” was 3 µM (≈ 1.67 µg/mL).

Compound `O=C(Cc1cc(Nc2ncnc3cc(OCCCN4CCC[C@@H]4CO)ccc23)n[nH]1)Nc1cccc(F)c1F` had a logD in “physchem [1]” of 2.06. Also, the thermodynamic solubility in “physchem [2]” is 141 µM (≈ 76 µg/mL).

In the data set “physchem [1]”, `CC1(c2nc(N3CCOCC3)ncc2C(=O)N[C@H]2C3CC4CC2C[C@](O)(C4)C3)CC1` gave a logD of 2. In addition, in “physchem [2]”, the thermodynamic solubility was found to be 407 µM (≈ 168 µg/mL).

The compound `CCN(CCN(C)C)S(=O)(=O)c1ccc(-c2cnc(N)c(C(=O)Nc3cccnc3)n2)cc1` yielded a logD in the data set “physchem [1]” of 2. In the data set “physchem [2]”, this compound yielded a solubility (thermodynamic) of 490 µM (≈ 230 µg/mL).

`Cc1nc(C)c(-c2ccc3c(c2)CC[C@]32CC[C@@H](Cc3nnn[nH]3)CC2)nc1C(N)=O` showed a logD in “physchem [1]” of 2. Also, in “physchem [2]”, the thermodynamic solubility is 77.6 µM (≈ 32.4 µg/mL).

With `COc1ccc(C(=O)CS(=O)(=O)c2ccccc2)cc1`, the logD in the data set “physchem [1]” turned out to be 1.96. The thermodynamic solubility in the data set “physchem [2]” came to 53.7 µM (≈ 15.6 µg/mL).

In the data set “physchem [1]”, `c1nc(N2CCCCC2)c2nc[nH]c2n1` displayed a logD of 1.84. In “physchem [2]”, the solubility (thermodynamic) is 501 µM (≈ 102 µg/mL).

Take `CS(=O)(=O)Nc1cccc(NC(=O)CN2CCN(C(=O)C[C@H](N)Cc3ccc(F)c(F)c3)[C@H](Cc3ccccc3)C2)c1`: the logD in the data set “physchem [1]” turned out to be 2.06. Also, the thermodynamic solubility in the data set “physchem [2]” turned out to be 661 µM (≈ 396 µg/mL).

With `O=C(CS(=O)(=O)c1ccccc1)c1ccccc1`, the logD in “physchem [1]” is 1.86. For the same compound, the solubility (thermodynamic) in the data set “physchem [2]” amounted to 234 µM (≈ 61 µg/mL).

In the case of `COc1cc2c(Nc3cc(CC(=O)Nc4cccc(F)c4F)[nH]n3)ncnc2cc1OCCCN1CCC[C@@H]1CO`, the logD in the data set “physchem [1]” turned out to be 1.96. Moreover, in the data set “physchem [2]”, the solubility (thermodynamic) was 813 µM (≈ 461 µg/mL).

In the data set “physchem [1]”, `Cc1nc(C)c(C(=O)N[C@@H](Cc2cccc(Cl)c2)C(=O)NCC#N)s1` came in with a logD of 2. The same compound displayed a thermodynamic solubility in “physchem [2]” of 57.5 µM (≈ 21.7 µg/mL).

In the data set “physchem [1]”, `CCS(=O)(=O)c1ccc(Oc2cc3nc(-c4ccccn4)[nH]c3cc2CN2C(=O)CCC2=O)cc1` returned a logD of 2. In addition, the solubility (thermodynamic) in “physchem [2]” was determined as 30.2 µM (≈ 14.8 µg/mL).
